{"source": "paper PMC11317440", "about": "“Soloxolone para-methylanilide effectively suppresses aggressive phenotype of glioblastoma cells including TGF-β1-induced glial-mesenchymal transition in vitro and inhibits growth of U87 glioblastoma xenografts in mice” (Frontiers in Pharmacology, 2024)", "key": {"[1]": {"system": "U87 secondary tumorspheres", "experiment": "Secondary tumorsphere formation, U87", "type": "cell-based, human", "method": "For evaluation of spheroid growth, the bottom of the 96-well plate was covered with 1% agarose for non-adherent conditions. U87 cells (5,000 cells/well) were then seeded and allowed to form spheroids for 24 h, after which increasing concentrations of compound 7 (0–1,000 nM) were added (n = 8). Every other day of the 10-day experiment, fresh medium supplemented with compound 7 was added to half of the medium, and the spheroids were photographed using a camera-equipped ZEISS Primo Vert microscope (Carl Zeiss Microscopy GmbH, Jena, Germany). To assess the formation of secondary tumorspheres, cells were dissociated from primary tumorspheres after 4 days of compound 7 stimulation using TrypLE Express and were then seeded into agarose-coated 96-well plates (n = 8). On day 3, the resulting secondary spheroids were examined microscopically. Primary and secondary spheroid areas were quantified using ImageJ."}, "TGF-β1-induced U87 cells": {"system": "TGF-β1-induced U87 cells", "experiment": "Cell morphology (cell size) of TGF-β1-induced U87 cells", "type": "cell-based, human", "conditions": "TGF-β1 50 ng/mL, non-toxic concentrations, 48 h", "method": "After seeding at a concentration of 5,000 cells/well in triplicate in 96-well plates and incubating overnight, U87 and U118 cells were exposed to TGF-β1 (50 ng/mL) and non-toxic concentrations of soloxolone amides for 48 h. An EVOS XL Core microscope with an integrated CMOS camera (Thermo Fisher Scientific, USA) was then used to examine cell morphology at ×20 magnification. Aspect ratio (AR) and area were quantified for at least 150 cells in each experimental group using ImageJ software (NIH, USA)."}, "U87 glioblastoma cells": {"system": "U87 glioblastoma cells", "experiment": "MTT cell viability assay, U87 cells, 48 h", "type": "cell-based, human", "method": "(§1) Cells were seeded in quadruplicate in 96-well plates at 10,000 cells/well and allowed to adhere overnight. The medium was then replaced with serum-free DMEM containing increasing concentrations of soloxolone amides for 48 h. After incubation, 3-(4,5-dimethylthiazol-2-yl)-2,5-diphenyltetrazolium bromide (MTT dye) was added at a final concentration of 0.5 mg/mL and left for 2 h. The resulting formazan crystals were dissolved in DMSO and the optical density was measured at 570 nm using a Multiscan RC plate reader (Thermo LabSystems, Helsinki, Finland)."}, "U87 cells": {"system": "U87 cells", "experiment": "Annexin V-FITC/propidium iodide flow cytometry, U87, 48 h", "type": "cell-based, human", "method": "To observe apoptosis and necrosis, U87 and U118 cells were stained with Annexin V-FITC and propidium iodide (ab14085; Abcam, Inc., Cambridge, MA, USA) after 48 h of incubation with compound 7 (0–2000 nM) according to the manufacturer’s protocol (n = 3). To quantify the total proportion of apoptotic cells in control and experimental groups, the events accumulated in the lower right quadrant (early apoptosis) and upper right quadrant (late apoptosis) were summarized.\nAfter staining, 10,000 cells per sample were analyzed on a NovoCyte flow cytometer using NovoExpress software (ACEA Biosciences, Inc., USA)."}, "[2]": {"system": "U87 glioblastoma tumor tissue", "experiment": "Histology and immunohistochemistry of U87 xenograft tumors", "type": "in vivo, athymic nude mice", "conditions": "day 19", "method": "For the histological study, the tumor specimens were fixed in 10% neutral-buffered formalin (BioVitrum, Moscow, Russia), dehydrated in ascending ethanols and xylols and embedded in HISTOMIX paraffin (BioVitrum, Russia). The paraffin sections (3–4 µm) were sliced on a Microm HM 355S microtome (Thermo Fisher Scientific, Waltham, MA, USA) and stained with hematoxylin and eosin.\nFor the immunohistochemical study, the tumor sections were deparaffinized and rehydrated. Antigen retrieval was carried out after exposure in a microwave oven at 700 W. The samples were incubated with anti-Ki-67 (ab16667, Abcam, Boston, MA, USA) (n = 3), anti-GFAP (ab194325, Abcam, USA) (n = 3), and anti-N-cadherin (ab76011, Abcam, USA) (n = 3) primary antibodies according to the manufacturer’s protocol. Then, the sections were incubated with secondary horseradish peroxidase (HPR)-conjugated antibodies, exposed to the 3,30-diaminobenzidine (DAB) substrate (Rabbit Specific HRP/DAB (ABC) Detection IHC Kit, ab64261, Abcam, USA) and stained with Mayer’s hematoxylin.\nFive to ten random fields were examined from the tumor specimens of three mice in each group, for a total of 15–30 test fields."}, "[3]": {"system": "TGF-β1-treated U118 cells", "experiment": "Scratch (wound closure) assay, U118 cells", "type": "cell-based, human", "conditions": "U118, 7 50 nM, TGF-β1 50 ng/mL", "method": "For the scratch assay, U118 cells were seeded in triplicate in 24-well plates at a concentration of 300,000 cells/well and allowed to adhere overnight. The cells were then scratched with a 10 μL plastic pipette tip, washed with PBS, and covered with serum-free DMEM containing TGF-β1 (50 ng/mL) and compound 7 (50 nM). Scratches were photographed at 0, 24, and 48 h using an EVOS XL Core microscope. Wound closure was determined by estimating the scratch area at each time point using ImageJ software and normalizing to the scratch area at 0 h."}, "U118 glioblastoma cells": {"system": "U118 glioblastoma cells", "experiment": "MTT cell viability assay, U118 cells, 48 h", "type": "cell-based", "conditions": "Homo sapiens", "method": "as §1"}, "[4]": {"system": "TGF-β1-treated U118 cells", "experiment": "Adhesion of U118 cells to culture plastic (TrypLE treatment, MTT)", "type": "cell-based, human", "conditions": "TGF-β1 50 ng/mL, 7 50 nM, 48 h", "method": "Adhesiveness of glioblastoma cells was assessed by two independent methods. First, cell adhesion to culture plastic was tested using a trypsin treatment assay, as previously described ([Sava et al., 2004]; [Mazuryk et al., 2015]; [van Dijk et al., 2017]). Briefly, U87 and U118 cells (10,000 cells per well of a 96-well plate, n = 4) were cultured with TGF-β1 (50 ng/mL) and non-toxic concentrations of soloxolone amides for 48 h and then treated with a 1:20 dilution of TrypLE Express (Gibco, USA) in PBS for 3 min at 37°C. Non-adherent cells were then removed by a triple PBS wash, and the remaining adherent cells were fixed with 4% formaldehyde and stained with crystal violet dye (0.1% w/v). Images were captured using the iBright 1,500 Imaging System (Invitrogen, USA), and the cell-occupied area was calculated using ImageJ. Alternatively, the number of adherent cells was quantified using the MTT assay."}}, "data": [{"smiles": "Cc1ccc(NC(=O)[C@@]2(C)CC[C@]3(C)CC[C@]4(C)[C@H](C(=O)C=C5[C@@]6(C)C=C(C#N)C(=O)C(C)(C)C6CC[C@]54C)[C@@H]3C2)cc1", "note": "(stereo partly shown) [compound 7, N-p-tolyl-2-cyano-3,12-dioxo-18βH-olean-9(11),1(2)-dien-30-amide]", "values": [{"measurement": "increase of secondary tumorsphere area", "setting": "[1]; U87, 7 50 nM for 4 days, p-value <0.01", "value": 22.6, "unit": "%"}, {"measurement": "increase of secondary tumorsphere area", "setting": "[1]; U87, 7 100 nM for 4 days, not statistically significant", "value": 6.6, "unit": "%"}, {"measurement": "decrease of secondary tumorsphere area", "setting": "[1]; U87, 7 450 nM for 4 days", "value": 23.9, "unit": "%"}, {"measurement": "decrease of secondary tumorsphere area", "setting": "[1]; U87, 7 1,000 nM for 4 days", "value": 84.1, "unit": "%"}, {"measurement": "effect on size/morphology of TGF-β1-induced U87 cells", "setting": "TGF-β1-induced U87 cells", "value": "restored their morphological characteristics to the control cells"}, {"measurement": "relative cytotoxicity", "setting": "U87 glioblastoma cells; 48 h of incubation, U87", "value": "high"}, {"measurement": "IC50", "setting": "U87 glioblastoma cells; Homo sapiens, U-87 MG, 48 h", "value": 161, "unit": "nM"}, {"measurement": "MNTC", "setting": "U87 glioblastoma cells; Homo sapiens, U-87 MG, 48 h, read-out: non-toxic concentration that reduced U87 cell viability by less than 10%", "value": 50, "unit": "nM"}, {"measurement": "percentage of cells in the right quadrants (apoptosis)", "setting": "U87 cells; U87, 7 450 nM", "value": 3.7, "unit": "%"}, {"measurement": "necrosis (upper left quadrant)", "setting": "U87 cells; U87, 7 1,000 nM", "value": 23.4, "unit": "%"}, {"measurement": "percentage of cells in the right quadrants (apoptosis)", "setting": "U87 cells; U87, 7 1,000 nM", "value": 40, "unit": "%"}, {"measurement": "necrosis (upper left quadrant)", "setting": "U87 cells; U87, 7 2000 nM", "value": 14.8, "unit": "%"}, {"measurement": "percentage of cells in the right quadrants (apoptosis)", "setting": "U87 cells; U87, 7 2000 nM", "value": 83.3, "unit": "%"}, {"measurement": "N-cadherin and GFAP levels in tumor sections (immunohistochemistry)", "setting": "[2]", "value": "significantly reduced their levels"}, {"measurement": "reduction in the numerical density of Ki-67-positive cells compared to vehicle", "setting": "[2]", "value": 4, "unit": "fold"}, {"measurement": "effect on TGF-β1-enhanced wound closure at 24 h", "setting": "[3]; 24 h", "value": "completely reversed"}, {"measurement": "reduction of the effect of TGF-β1 on wound closure at 48 h", "setting": "[3]; 48 h", "value": 34, "unit": "%"}, {"measurement": "IC50", "setting": "U118 glioblastoma cells", "value": 310, "unit": "nM"}, {"measurement": "TGF-β1-induced decrease in U118 cell adhesion to culture plastic", "setting": "[4]", "value": "effectively reversed"}]}]}
